Laboratory results taken from patent US5093480A, “Azoxy compounds” (Kowa Company, Ltd., priority 1988, dated 1992).
In brackets after ≈: the same amount, converted by molar mass.

Assays:
Candida albicans = test: Minimum inhibitory concentration, agar dilution method, Candida albicans; format: cell-based; conditions: Sabouraud's dextrose medium; for MIC: Candida albicans
Description: (§1) The minimum inhibitory concentrations (μg/ml), relative to test fungi, of some of the typical compounds in this invention produced in Examples to be described later were measured, and the results are tabulated below.
(§2) *The minimum inhibitory concentrations were measured by an agar dilution
(§3) method using a Sabouraud's dextrose medium in accordance with a standard
(§4) method of Nippon Kagaku Ryoho Gakkai (Chemical Therapy Academy).

Cystococcus neoformans = test: Minimum inhibitory concentration, agar dilution method, Cystococcus neoformans; format: cell-based; conditions: Sabouraud's dextrose medium
Description: as §1, §2, §3, §4

[1] = test system: Trichophyton mentagrophytes; test: Minimum inhibitory concentration, agar dilution method, Trichophyton mentagrophytes; format: cell-based; conditions: Sabouraud's dextrose medium; for MIC: Trichophyton mentagrophytes
Description: as §1, §2, §3, §4

Trichophyton rubrus = test: Minimum inhibitory concentration, agar dilution method, Trichophyton rubrus; format: cell-based; conditions: Sabouraud's dextrose medium; for MIC: Trichophyton
Description: as §1, §2, §3, §4

Acute toxicity to mice = conditions: mouse, in vivo, intravenous administration
Description: The compound in this invention is low in toxicity. For example, acute toxicities LD50 to mice of the compounds in Examples 1 and 4 to be described later are both more than 100 mg/kg (intravenous administration).

[2] = Stability in serum (thin layer chromatography and biological verification using Candida albicans); format: in vitro ADME; conditions: left to stand in serum at 37° C. for 4 hours; TLC and biological verification using Candida albicans

Compound: CCCC/C=C/[N+]([O-])=NC(C)C(C)=NNC(C)=O (stereo not shown) [Example 43, 2-acetylhydrazono-2-deoxo-KA-7367A]
- MIC (Candida albicans): 1.6 µg/mL (≈ 6.29 µM)
- MIC (Cystococcus neoformans): 3.1 µg/mL (≈ 12.2 µM)
- MIC [1]: 6.25 µg/mL (≈ 24.6 µM)
- MIC (Trichophyton rubrus): 3.1 µg/mL (≈ 12.2 µM)

Compound: CCCC/C=C/[N+]([O-])=NC(C)C(C)=NNC(=O)CN1CCN(C(C)=O)CC1 (stereo not shown) [Example 53, 2-(4-acetylpiperazinyl-acetylhydrazono)-2-deoxo-KA-7367A]
- MIC (Candida albicans): 3.1 µg/mL (≈ 8.15 µM)
- MIC (Cystococcus neoformans): 12.5 µg/mL (≈ 32.9 µM)
- MIC [1]: 6.25 µg/mL (≈ 16.4 µM)
- MIC (Trichophyton rubrus): 3.1 µg/mL (≈ 8.15 µM)

Compound: CCCC/C=C/[N+]([O-])=NC(C)C(C)=NOC(C)=O (stereo not shown) [Example 24, 2-acetoxyimino-2-deoxo-KA-7367A]
- MIC (Candida albicans): 25 µg/mL (≈ 97.9 µM)
- MIC (Cystococcus neoformans): 50 µg/mL (≈ 196 µM)
- MIC [1]: 12.5 µg/mL (≈ 49 µM)
- MIC (Trichophyton rubrus): 6.25 µg/mL (≈ 24.5 µM)

Compound: CCCC/C=C/[N+]([O-])=NC(C)C(C)=NNC(=O)Cc1ccc(Cl)cc1 (stereo not shown) [Example 74, 2-(p-chlorophenylacetylhydrazono)-2-deoxo-KA-7367A]
- MIC (Candida albicans): 1.6 µg/mL (≈ 4.39 µM)
- MIC (Cystococcus neoformans): 6.25 µg/mL (≈ 17.1 µM)
- MIC [1]: 6.25 µg/mL (≈ 17.1 µM)
- MIC (Trichophyton rubrus): 3.1 µg/mL (≈ 8.5 µM)

Compound: 2-(2,4-dichlorodiphenylacetylhydrazono)-2-dioxo-KA-7367A [Example 79]
- Minimum inhibitory concentration, Candida albicans (Candida albicans): 1.6 µg/mL
- Minimum inhibitory concentration, Cystococcus neoformans (Cystococcus neoformans): 6.25 µg/mL
- Minimum inhibitory concentration, Trichophyton mentagrophytes [1]: 3.1 µg/mL
- Minimum inhibitory concentration, Trichophyton rubrus (Trichophyton rubrus): 1.6 µg/mL

Compound: CCCC/C=C/[N+]([O-])=NC(C)C(C)=NOC(=O)c1ccc(Cl)cc1 (stereo not shown) [Example 27, 2-(p-chlorobenzoyloxyimino)-2-deoxo-KA-7367A]
- MIC (Candida albicans): 100 µg/mL (≈ 284 µM)
- MIC (Cystococcus neoformans): 100 µg/mL (≈ 284 µM)
- MIC [1]: 12.5 µg/mL (≈ 35.5 µM)
- MIC (Trichophyton rubrus): 6.25 µg/mL (≈ 17.8 µM)

Compound: CCCC/C=C/[N+]([O-])=NC(C)C(C)=NNC(=O)Cc1cccc2ccccc12 (stereo not drawn) [Example 52, 2-(alpha-naphthylacetylhydrazono)-2-deoxo-KA-7367A]
- MIC (Candida albicans): 3.1 µg/mL (≈ 8.15 µM)
- MIC (Cystococcus neoformans): 12.5 µg/mL (≈ 32.9 µM)
- MIC [1]: 6.25 µg/mL (≈ 16.4 µM)
- MIC (Trichophyton rubrus): 3.1 µg/mL (≈ 8.15 µM)

Compound: CCCC/C=C/[N+]([O-])=NC(C)C(C)=NNC(N)=S (stereo not shown) [Example 35, 2-thiosemicarbazono-2-deoxo-KA-7367A]
- MIC (Candida albicans): 3.1 µg/mL (≈ 11.4 µM)
- MIC (Cystococcus neoformans): 6.25 µg/mL (≈ 23 µM)
- MIC [1]: 6.25 µg/mL (≈ 23 µM)
- MIC (Trichophyton rubrus): 3.1 µg/mL (≈ 11.4 µM)

Compound: CCCC/C=C/[N+]([O-])=NC(C)C(C)=NOC(=O)c1ccccc1 (stereo not shown) [Example 25, 2-benzoyloxyimino-2-deoxo-KA-7367A]
- MIC (Candida albicans): 50 µg/mL (≈ 158 µM)
- MIC (Cystococcus neoformans): 50 µg/mL (≈ 158 µM)
- MIC [1]: 12.5 µg/mL (≈ 39.4 µM)
- MIC (Trichophyton rubrus): 3.1 µg/mL (≈ 9.77 µM)

Compound: CCCC/C=C/[N+]([O-])=NC(C)C(C)=NNC(=O)Cc1c(OC)cccc1OC (stereo not shown) [Example 62, 2-[(2,6-dimethoxyphenyl)acetylhydrazono]-2-deoxo-KA-7367A]
- MIC (Candida albicans): 1.6 µg/mL (≈ 4.1 µM)
- MIC (Cystococcus neoformans): 12.5 µg/mL (≈ 32 µM)
- MIC [1]: 6.25 µg/mL (≈ 16 µM)
- MIC (Trichophyton rubrus): 3.1 µg/mL (≈ 7.94 µM)

Compound: CCCC/C=C/[N+]([O-])=NC(C)C(C)=NNC(=O)CN1CCN(C(=O)Cc2c(Cl)cccc2Cl)CC1 (stereo not shown) [Example 54, 2-[4-(2,6-dichlorophenylacetyl)-1-piperazinylacetylhydrazino]-2-deoxo-KA-7367A]
- MIC (Candida albicans): 3.1 µg/mL (≈ 5.9 µM)
- MIC (Cystococcus neoformans): 12.5 µg/mL (≈ 23.8 µM)
- MIC [1]: 6.25 µg/mL (≈ 11.9 µM)
- MIC (Trichophyton rubrus): 3.1 µg/mL (≈ 5.9 µM)

Compound: CCCC/C=C/[N+]([O-])=NC(C)C(C)=NOCCOCC (stereo not shown) [Example 3, 2-(2-ethoxy-ethoxyimino)-2-dioxo-KA-7367A]
- MIC (Candida albicans): 25 µg/mL (≈ 87.6 µM)
- MIC (Cystococcus neoformans): 50 µg/mL (≈ 175 µM)
- MIC [1]: 25 µg/mL (≈ 87.6 µM)
- MIC (Trichophyton rubrus): 6.25 µg/mL (≈ 21.9 µM)

Compound: CCCC/C=C/[N+]([O-])=NC(C)C(C)=NNC(=O)c1cccnc1 (stereo not shown) [Example 71, 2-nicotinoylhydrazono-2-deoxo-KA-7367A]
- MIC (Candida albicans): 6.25 µg/mL (≈ 19.7 µM)
- MIC (Cystococcus neoformans): 12.5 µg/mL (≈ 39.4 µM)
- MIC [1]: 6.25 µg/mL (≈ 19.7 µM)
- MIC (Trichophyton rubrus): 6.25 µg/mL (≈ 19.7 µM)

Compound: CCCC/C=C/[N+]([O-])=NC(C)C(C)=NNC(=O)c1ccco1 (stereo not shown) [Example 67, 2-(2-furylcarbonylhydrazono)-2-deoxo-KA-7367A]
- MIC (Candida albicans): 1.6 µg/mL (≈ 5.22 µM)
- MIC (Cystococcus neoformans): 6.25 µg/mL (≈ 20.4 µM)
- MIC [1]: 3.1 µg/mL (≈ 10.1 µM)
- MIC (Trichophyton rubrus): 3.1 µg/mL (≈ 10.1 µM)

Compound: CCCC/C=C/[N+]([O-])=NC(C)C(C)=NNC(=O)Cn1ccnc1 (stereo not shown) [Example 47, 2-(1-imidazolylacetylhydrazono)-2-deoxo-KA-7367A]
- MIC (Candida albicans): 6.25 µg/mL (≈ 19.5 µM)
- MIC (Cystococcus neoformans): 50 µg/mL (≈ 156 µM)
- MIC [1]: 25 µg/mL (≈ 78 µM)
- MIC (Trichophyton rubrus): 12.5 µg/mL (≈ 39 µM)

Compound: CCCC/C=C/[N+]([O-])=NC(C)C(C)=NNC(=O)C(c1ccc(Cl)cc1)c1ccccc1Cl (stereo not shown) [Example 78, 2-(2,4'-dichlorodiphenylacetylhydrazono)-2-deoxo-KA-7367A]
- MIC (Candida albicans): 0.8 µg/mL (≈ 1.68 µM)
- MIC (Cystococcus neoformans): 6.25 µg/mL (≈ 13.1 µM)
- MIC [1]: 3.1 µg/mL (≈ 6.52 µM)
- MIC (Trichophyton rubrus): 3.1 µg/mL (≈ 6.52 µM)

Compound: CCCC/C=C/[N+]([O-])=NC(C)C(C)=NOC(C)(C)C(=O)O (stereo not shown) [Example 5, 2-(1-carboxy-1-ethylmethoxyimino)-2-deoxo-KA-7367A]
- MIC (Candida albicans): 12.5 µg/mL (≈ 41.8 µM)
- MIC (Cystococcus neoformans): 25 µg/mL (≈ 83.5 µM)
- MIC [1]: 12.5 µg/mL (≈ 41.8 µM)
- MIC (Trichophyton rubrus): 3.1 µg/mL (≈ 10.4 µM)

Compound: CCCC/C=C/[N+]([O-])=NC(C)C(C)=NNC(=O)c1ccncc1 (stereo not shown) [Example 70, 2-isonicotinoylhydrazono-2-deoxo-KA-7367A]
- MIC (Candida albicans): 25 µg/mL (≈ 78.8 µM)
- MIC (Cystococcus neoformans): 50 µg/mL (≈ 158 µM)
- MIC [1]: 25 µg/mL (≈ 78.8 µM)
- MIC (Trichophyton rubrus): 12.5 µg/mL (≈ 39.4 µM)

Compound: CCCC/C=C/[N+]([O-])=NC(C)C(C)=NNC(=O)Cc1cccnc1 (stereo not shown) [Example 48, 2-(3-pyridylacetylhydrazono)-2-deoxo-KA-7367A]
- MIC (Candida albicans): 1.6 µg/mL (≈ 4.83 µM)
- MIC (Cystococcus neoformans): 6.25 µg/mL (≈ 18.9 µM)
- MIC [1]: 3.1 µg/mL (≈ 9.35 µM)
- MIC (Trichophyton rubrus): 1.6 µg/mL (≈ 4.83 µM)

Compound: CCCC/C=C/[N+]([O-])=NC(C)C(C)=NNC(N)=O (stereo not shown) [Example 34, 2-semicarbazono-2-deoxo-KA-7367A]
- MIC (Candida albicans): 3.1 µg/mL (≈ 12.1 µM)
- MIC (Cystococcus neoformans): 3.1 µg/mL (≈ 12.1 µM)
- MIC [1]: 3.1 µg/mL (≈ 12.1 µM)
- MIC (Trichophyton rubrus): 1.6 µg/mL (≈ 6.27 µM)

Compound: CCCC/C=C/[N+]([O-])=NC(C)C(C)=NNC(=O)Cc1c(F)cccc1F (stereo not shown) [Example 61, 2-[(2,6-difluorophenyl)acetylhydrazono]-2-deoxo-KA-7367A]
- MIC (Candida albicans): 0.8 µg/mL (≈ 2.18 µM)
- MIC (Cystococcus neoformans): 6.25 µg/mL (≈ 17.1 µM)
- MIC [1]: 3.1 µg/mL (≈ 8.46 µM)
- MIC (Trichophyton rubrus): 1.6 µg/mL (≈ 4.37 µM)

Compound: CCCC/C=C/[N+]([O-])=NC(C)C(C)=NOCC(=O)O (stereo not shown) [Example 4, 2-carboxymethoxyimino-2-deoxo-KA-7367A]
- MIC (Candida albicans): 12.5 µg/mL (≈ 46.1 µM)
- MIC (Cystococcus neoformans): 25 µg/mL (≈ 92.1 µM)
- MIC [1]: 12.5 µg/mL (≈ 46.1 µM)
- MIC (Trichophyton rubrus): 3.1 µg/mL (≈ 11.4 µM)
- LD50 (Acute toxicity to mice): > 100 mg/kg

Compound: CCCC/C=C/[N+]([O-])=NC(C)C(C)=NO (stereo not shown) [Example 1, 2-hydroxyimino-2-deoxo-KA-7367A]
- MIC (Candida albicans): 12.5 µg/mL (≈ 58.6 µM)
- MIC (Cystococcus neoformans): 25 µg/mL (≈ 117 µM)
- MIC [1]: 12.5 µg/mL (≈ 58.6 µM)
- MIC (Trichophyton rubrus): 3.1 µg/mL (≈ 14.5 µM)
- LD50 (Acute toxicity to mice): > 100 mg/kg

Compound: CCCC/C=C/[N+]([O-])=NC(C)C(C)=O (stereo not shown) [KA-7367A]
- decomposition in serum [2]: almost decomposed

Compound: 2-thenoylhydrazono-2-deoxo-KA-7367A [Example 68]
- Minimum inhibitory concentration, Candida albicans (Candida albicans): 3.2 µg/mL
- Minimum inhibitory concentration, Cystococcus neoformans (Cystococcus neoformans): 6.25 µg/mL
- Minimum inhibitory concentration, Trichophyton mentagrophytes [1]: 6.25 µg/mL
- Minimum inhibitory concentration, Trichophyton rubrus (Trichophyton rubrus): 6.25 µg/mL

Compound: CCCC/C=C/[N+]([O-])=NC(C)C(C)=NNC(=O)Cc1ccc(Cl)cc1Cl (stereo not shown) [Example 49, 2-(2,4-dichlorophenylacetylhydrzono)-2-deoxo-KA-7367A]
- MIC (Candida albicans): 1.6 µg/mL (≈ 4.01 µM)
- MIC (Cystococcus neoformans): 6.25 µg/mL (≈ 15.7 µM)
- MIC [1]: 3.1 µg/mL (≈ 7.76 µM)
- MIC (Trichophyton rubrus): 1.6 µg/mL (≈ 4.01 µM)
